This passage reports IC50 results from the Kinase Knowledgebase extract (Sharma et al. 2016).

Where “and” joins values, the source holds several entries; their conditions need not be identical. Equal entries are not always repeated. A value given as a limit tells only on which side of the number the result lay.

A word on the IC50: it is the midpoint of a concentration-inhibition curve.

Assay [1] addresses PIK3CG (human) (UniProt P48736). The experiment in a line: Inhibition of PIK3CG Kinase Assay.
In assay [2] the target is PIK3CB (UniProt P42338). The experiment in a line: Inhibition of PIK3CB Kinase Assay.
PIK3CB, sequence (P42338 whole entry, looked up): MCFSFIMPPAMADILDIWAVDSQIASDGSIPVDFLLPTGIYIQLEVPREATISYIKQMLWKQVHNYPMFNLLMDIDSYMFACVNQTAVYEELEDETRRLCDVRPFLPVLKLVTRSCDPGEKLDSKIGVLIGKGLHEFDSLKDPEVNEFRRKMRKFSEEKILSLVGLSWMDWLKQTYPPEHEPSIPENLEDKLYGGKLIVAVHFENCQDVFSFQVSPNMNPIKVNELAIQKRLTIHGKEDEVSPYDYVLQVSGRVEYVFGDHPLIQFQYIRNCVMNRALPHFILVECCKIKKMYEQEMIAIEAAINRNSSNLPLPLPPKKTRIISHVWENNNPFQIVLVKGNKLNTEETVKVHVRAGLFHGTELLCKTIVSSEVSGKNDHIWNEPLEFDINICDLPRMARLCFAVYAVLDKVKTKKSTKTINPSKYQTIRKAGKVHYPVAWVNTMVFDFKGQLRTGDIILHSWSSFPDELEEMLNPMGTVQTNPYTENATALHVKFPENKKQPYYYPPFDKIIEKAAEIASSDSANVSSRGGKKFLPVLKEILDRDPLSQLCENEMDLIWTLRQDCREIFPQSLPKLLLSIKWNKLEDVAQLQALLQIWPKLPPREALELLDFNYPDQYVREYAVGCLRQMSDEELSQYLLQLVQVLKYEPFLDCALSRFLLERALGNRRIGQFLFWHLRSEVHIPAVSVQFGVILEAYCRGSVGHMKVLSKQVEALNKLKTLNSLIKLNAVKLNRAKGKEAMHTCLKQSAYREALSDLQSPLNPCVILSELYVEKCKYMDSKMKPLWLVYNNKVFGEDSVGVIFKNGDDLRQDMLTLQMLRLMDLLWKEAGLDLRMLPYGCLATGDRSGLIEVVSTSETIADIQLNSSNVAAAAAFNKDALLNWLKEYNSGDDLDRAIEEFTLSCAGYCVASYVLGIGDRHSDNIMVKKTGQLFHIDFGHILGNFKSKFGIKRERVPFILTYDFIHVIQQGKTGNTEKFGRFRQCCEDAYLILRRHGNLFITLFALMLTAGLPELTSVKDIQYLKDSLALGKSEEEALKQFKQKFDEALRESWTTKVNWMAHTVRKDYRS

PIK3CG (human), sequence (P48736 whole entry, looked up): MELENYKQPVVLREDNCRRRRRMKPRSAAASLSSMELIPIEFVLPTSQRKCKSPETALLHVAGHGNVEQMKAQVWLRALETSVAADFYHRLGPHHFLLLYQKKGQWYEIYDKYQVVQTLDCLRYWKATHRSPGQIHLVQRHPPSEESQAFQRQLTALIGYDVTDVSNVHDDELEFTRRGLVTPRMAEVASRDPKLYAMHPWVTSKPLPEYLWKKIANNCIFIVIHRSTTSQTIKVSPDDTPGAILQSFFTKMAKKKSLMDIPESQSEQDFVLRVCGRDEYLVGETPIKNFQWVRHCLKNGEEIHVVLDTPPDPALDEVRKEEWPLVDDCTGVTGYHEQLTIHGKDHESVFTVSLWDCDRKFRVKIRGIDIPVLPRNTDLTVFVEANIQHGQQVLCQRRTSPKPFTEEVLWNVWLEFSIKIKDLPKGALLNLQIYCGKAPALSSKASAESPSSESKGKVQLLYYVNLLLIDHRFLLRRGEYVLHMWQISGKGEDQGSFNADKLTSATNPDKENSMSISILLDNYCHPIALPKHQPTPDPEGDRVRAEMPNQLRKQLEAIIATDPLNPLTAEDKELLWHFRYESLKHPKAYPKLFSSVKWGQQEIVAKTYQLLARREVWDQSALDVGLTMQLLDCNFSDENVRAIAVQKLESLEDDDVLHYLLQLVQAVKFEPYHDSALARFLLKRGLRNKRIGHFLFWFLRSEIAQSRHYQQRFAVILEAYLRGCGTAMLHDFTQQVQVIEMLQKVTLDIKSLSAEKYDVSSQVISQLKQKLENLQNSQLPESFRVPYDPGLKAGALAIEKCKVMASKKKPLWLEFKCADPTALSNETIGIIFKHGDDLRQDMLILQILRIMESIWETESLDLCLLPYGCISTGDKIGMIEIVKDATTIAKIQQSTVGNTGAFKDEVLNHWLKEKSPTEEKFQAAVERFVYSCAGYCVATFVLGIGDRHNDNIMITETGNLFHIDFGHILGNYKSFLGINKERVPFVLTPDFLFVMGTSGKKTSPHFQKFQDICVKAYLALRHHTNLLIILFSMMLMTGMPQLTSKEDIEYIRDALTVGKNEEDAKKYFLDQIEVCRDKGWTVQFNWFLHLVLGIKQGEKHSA

For the compound `O=C(NC1=Nc2cc(O)ccc2C2=NCCN12)c1cccnc1`, the IC50 in assay [1] fell in the range of 100 to 500 nM; in assay [2] it was 500 to 2000 nM.
As for `CC(=O)Nc1ccc(C(=O)NC2=Nc3cc(N4CCOCC4)ccc3C3=NCCN23)cn1`, the IC50 in assay [1] is at most 100 nM; in assay [2], 500 to 2000 nM and 100 to 500 nM.
Turning to `COC(=O)CCCOc1ccc2c(c1OC)N=C(/C=C(\O)c1cccnc1)N1CCN=C21`, the IC50 in assay [2] lay in the range of 500 to 2000 nM.
In the case of `COc1c(OCCCC(=O)O)ccc2c1N=C(/C=C(\O)c1cccnc1)N1CCN=C21`, the figures for the IC50 in assay [1] and in assay [2] were at most 100 nM and 100 to 500 nM, respectively.
Take `O=C(NC1=Nc2ccccc2C2=NCCN12)c1cccnc1`: the figures for the IC50 in assay [1] and in assay [2] were at most 100 nM and 100 to 500 nM, respectively.
Consider `O=C(NC1=Nc2cc(OCCn3cccc3)ccc2C2=NCCN12)c1cccnc1`, for which the IC50 in assay [1] and in assay [2] was 100 to 500 nM throughout.
Turning to `COc1cc2c(cc1OC)C1=NCCN1C(/C=C(\O)c1cccnc1)=N2`, the figures for the half-maximal inhibitory concentration (IC50) in assay [1] and in assay [2] were at most 100 nM and 500 to 2000 nM, respectively.
In the case of `COc1c(O)ccc2c1N=C(/C=C(\O)c1cccnc1)N1CCN=C21`, the IC50 in assay [2] lay in the range of 500 to 2000 nM.
`COc1c(OCCCC(=O)N2CCOCC2)ccc2c1N=C(/C=C(\O)c1cccnc1)N1CCN=C21`: the IC50 in assay [1] is at most 100 nM; in assay [2] it was 100 to 500 nM.
